Where two headings read alike, the source gives them in different places. Marks after values point to notes of the source that are not given here.
Key:
[1] = Rabbit; 0.5%, 50 μL, 250 μg; Sigurdsson et al. (2007); cited from earlier work
[2] = 3% rifampicin solution, boric acid buffer
Procedure: In the present example, the pH value was set to be pH 2 to 12, and the concentration of a nonionic surfactant was set to be 0.001% by weight to 50% by weight. As buffer solutions, a boric acid buffer solution, and a phosphoric acid buffer solution and a citric acid buffer solution were used.
A 50 mM phosphoric acid buffer solution, a 50 mM citric acid buffer solution, or a 25 mM boric acid-borax buffer solution (all of which were final concentrations) was prepared, and thereafter, about 0.9% sodium chloride, about 0.1% EDTA, 0.01% benzalkonium chloride (all of which were final concentrations), and various concentrations of nonionic surfactants (Tween 80 or Polyoxyethylene (7) alkyl (sec-C11-15) ethers) were mixed into the solution. […] In the case of using a citric acid buffer solution, the pH value of the mixed solution was adjusted using hydrochloric acid under conditions of pH 2.6 or less. In the case of using boric acid, the pH value was adjusted using hydrochloric acid under conditions of pH 5.7 or less. […] The thus prepared solutions were continuously blended for about 2 hours, and the pH value thereof was measured at 25° C.

[3] = Retina exposure level of rifampicin after application of topical eye drops (3 or 10 drops), LC/MS; type: in vivo, Sprague-Dawley rats; details: for Drug amount detected in retina: Rat, 0.25%, present study; for Rifampicin extracted from retina: rat, average of n = 3
Procedure: The remaining two rats received the same application, but 10 drops of the eye drops, in each eye under isoflurane sedation. A single drop contained 5 μL of the above-described formulation, and application of each drug drop was carried out with intervals of 30 minutes. After the eye drop application, the retina was excised from each rat under a dissection microscope. In addition, “non-treated” negative controls were used, and the retina was excised from two rats without performing any treatments on the rats. The retina was placed in a 1.5-ml microcentrifuge tube (1 retina/tube), and was fully washed with DPBS. After completion of the washing procedures, the retinal tissues in the microcentrifuge tube were frozen in dry ice, and were then preserved for quantification by LC/MS analysis.

[4] = system: oxygen-induced retinopathy rat models; assay: Neovascularization in retina quantified by capillaries in histology sections; type: in vivo, Sprague-Dawley rat; details: n = 3, vehicle only control 16.3
Procedure: Oxygen-induced retinopathy rat models were produced according to the protocols of Yanni et al. (2010) and Dorfmann et al. (2008). Sprague-Dawley rat babies (and their nursing mothers) were exposed to a cycling oxygen environment (80% and 21%, about one day for each) for 15 days after starting from the day of birth (Day 0). On Day 15 (P15), the animals were moved to room air. […] An eye drop formulation shown as Example 1 A in Table 1, or a vehicle only was administered to the eyes of the baby rats every day, for 5 days between P15 and P19, in the morning, about the noon, and in the evening. […] On P20, all of the animals were euthanized, and the retina was visualized as histology sections. In those histology sections, capillaries in the retinal tissues in 3 eye balls (AMD 101 topical application, AMD 101 SC injection administration group, and non-induction of retinopathy) or 5 eye balls (control administration group of a vehicle only) were counted, so that neovascularization was quantified. These eye balls were selected from different animals in the above-described administration groups. Representative images of the histology sections are shown (see FIGS. 1A to 1H).

SMILES | Drug amount detected in retina [1] | nonionic surfactant addition by which the composition is solubilized (from relational expression) ([2]; pH 3.0) | nonionic surfactant addition by which the composition is solubilized (from relational expression) ([2]; pH 4.0) | Drug amount detected in retina ([3]; 3 drops (15 μL, 37.5 μg)) | Drug amount detected in retina ([3]; 10 drops (50 μL, 125 μg)) | Rifampicin extracted from retina ([3]; 3 drops (5 μL each, 30 min intervals) of 0.25% rifampicin eye drops (Example 1A) per eye) | Rifampicin extracted from retina ([3]; 10 drops (5 μL each, 30 min intervals) of 0.25% rifampicin eye drops (Example 1A) per eye) | Average numbers of capillaries in high power field per eye ([4]; 0.25% AMD101 topical eye drop (Example 1A), three times a day P15 to P19) | Average numbers of capillaries in high power field per eye ([4]; 0.5% AMD101 SC injection (Example 6A), 20 mg/Kg once a day P15 to P19) | pH at which solubilization of rifampicin does not need addition of a surfactant ([…]) | rifampicin concentration whose solubilization did not need addition of a surfactant (pH range of pH 2 to pH 12) [% by weight]
C[C@@H]1C[C@H]2[C@@H]3CCC4=CC(=O)C=C[C@]4(C)[C@@]3(F)[C@@H](O)C[C@]2(C)[C@@]1(O)C(=O)CO [Dexamethasone] | About 33 ng/1 g of ng/1 g of retinal tissues | – | – | – | – | – | – | – | – | – | –
CO[C@H]1/C=C/O[C@@]2(C)Oc3c(C)c(O)c4c(O)c(c(/C=N/N5CCN(C)CC5)c(O)c4c3C2=O)NC(=O)/C(C)=C\C=C\[C@H](C)[C@H](O)[C@@H](C)[C@@H](O)[C@@H](C)[C@H](OC(C)=O)[C@@H]1C [rifampicin] | – | about 8.2% | about 10.7% | About 1,288 ng/1 g of ng/1 g of retinal tissues | About 2,939 ng/1 g of ng/1 g of retinal tissues | 1,288* ng/1 g of tissues | 2,939* ng/1 g of tissues | 7.78 | 9.28 | ≥ 8.5 | ≤ 0.002
